{
  "source": "patent US20110318768A1",
  "about": "“METHOD FOR DETERMINING SENSITIVITY OF TUMOR CELLS TO TYROSINE KINASE INHIBITOR AND COMPUTER PROGRAM PRODUCT” (SYSMEX CORPORATION, priority 2010, published 2011)",
  "key": {"[1]": {"system": "tyrosine kinase in measurement samples of lapatinib-sensitive cell line group", "experiment": "Tyrosine kinase activity inhibition, group comparison (FIG. 3)", "format": "biochemical", "description": "(§1) After shaking the measuring plate at 37° C. and 400 rpm for 60 minutes, the solution was removed from the measuring plate, and the wells were washed with 300 μl of TBS-T three times. 100 μl of Starting Block T20 (TBS) (#37543: Pierce) as a blocking solution was added to the wells, followed by blocking at 37° C. and 400 rpm for 10 minutes. The blocking solution was removed from the measuring plate. 100 μl of a solution prepared by diluting HRP-labeled anti-phosphorylated tyrosine antibody (#sc-508 HRP: Santa Cruz) with Starting Block T20 (TBS) at a ratio of 1:1000 was added to the wells, followed by shaking at 37° C. and 400 rpm for 90 minutes. Then, the wells were washed with 300 μl of TBS-T five times. […] Thereafter, the emission from the wells was measured by a GENios microplate reader (manufactured by Tecan Trading AG). The inhibitory capacity of the kinase inhibitors in the measurement sample was evaluated by an inhibition rate (value of “100−{(measurement value of activity in the presence of inhibitors)/(measurement value of activity in the absence of inhibitors)}×100”) calculated base on a ratio of the measurement value of tyrosine kinase activity in the presence of the inhibitors and the measurement value of the control (in the absence of the inhibitors). […]"}, "[2]": {"system": "tyrosine kinase in measurement samples of lapatinib-insensitive cell line group", "experiment": "Tyrosine kinase activity inhibition, group comparison (FIG. 3)", "format": "biochemical", "description": "as §1"}, "[3]": {"system": "tyrosine kinase of BT-474", "settings": "US 2011027809; cited from earlier work"}, "[4]": {"system": "tyrosine kinase of T47D", "settings": "US 2011027809; cited from earlier work"}},
  "data": [
    {"smiles": "COc1cc2ncnc(Nc3ccc(Oc4ccccc4)cc3)c2cc1OC", "note": "[Inhibitor 10, 4-(4′-phenoxyanilino)-6,7-dimethoxyquinazoline]", "values": [
      {"measurement": "inhibitory effect of the Src inhibitor on the kinase activity", "setting": "[1]", "value": "low"},
      {"measurement": "inhibitory effect of the Src inhibitor on the kinase activity", "setting": "[2]", "value": "high"},
      {"measurement": "tyrosine kinase activity inhibitory effects caused by the Src inhibitor", "setting": "[3]", "value": "high"},
      {"measurement": "tyrosine kinase activity inhibitory effects caused by the Src inhibitor", "setting": "[4]", "value": "low"}
    ]}
  ]
}
